Measurements reported in article PMC8843100, “Development of newly synthesised quinazolinone-based CDK2 inhibitors with potent efficacy against melanoma” (Journal of Enzyme Inhibition and Medicinal Chemistry, 2022).

Legend:
SK-MEL-5 = assay: NCI-60 single dose screen, sulforhodamine B; type: cell-based, human; details: Melanoma SK-MEL-5; single dose 10^−5 M
Procedure: (§1) In this research, all of the newly synthesised quinazolinones were subjected to in vitro anticancer screening by the National Cancer Institute (USA) against 60 different human cell lines including leukaemia, non-small cell lung cancer, colon cancer, CNS cancer, melanoma, ovarian cancer, renal cancer, prostate cancer, and breast cancer. The tested compounds were evaluated at a single dose (10^−5 M). […] Regarding the benzenesulfonamide counterparts, the introduction of an electron-withdrawing group on the benzenesulfonamide moiety increased the inhibitory activity on the glioblastoma cell line SNB-75 as depicted by the chloro derivative 5c (GI% = 63.09) which was higher than that of the unsubstituted derivative 5a (GI% = 40.06) and the methyl derivative 5b (GI% = 33.03).
(§2) 1. Cytotoxicity screening against a panel of 60 human tumor cell lines
(§3) All the compounds were selected for NCI-60 Human Tumor Cell Lines Screen by the Developmental Therapeutics Program (DTP) at the National Cancer Institute (NCI), Maryland, USA. The operation of this screen utilizes 60 different human tumor cell lines, representing leukemia, non-small-cell lung cancer, colon cancer, CNS cancer, melanoma, ovarian cancer, renal cancer, prostate cancer and breas t cancer.
(§4) The compounds were supplied as dry powder and a single concentration is tested in all 60 cell lines at a single dose of 10 µM solution in dimethyl sulfoxide (DMSO) using Sulforhodamine B assay. Briefly, cells are seeded in 96 well plates at an appropriate density and incubated for 1 day. After 1 day, some of the plates are processed to determine the density time zero. To the remaining plates, compounds are added at 10 µM concentration. Plates are incubated a further 2 days, then fixed and staine d with sulphorhodamine B. Growth inhibition is calculated relative to cells without drug treatment and the time zero control. The use of a time zero control allows the determination of cell kill as well as net growth inhibition. […]

EKVX = assay: NCI-60 single dose screen, sulforhodamine B; type: cell-based, human; details: Non-small cell lung cancer EKVX; single dose 10^−5 M
Procedure: as §1, §2, §3, §4

HOP-92 = assay: NCI-60 single dose screen, sulforhodamine B; type: cell-based, human; details: Non-small cell lung cancer HOP-92; single dose 10^−5 M
Procedure: as §1, §2, §3, §4

UACC-257 = assay: NCI-60 single dose screen, sulforhodamine B; type: cell-based, human; details: Melanoma UACC-257; single dose 10^−5 M
Procedure: as §1, §2, §3, §4

CAKI-1 = assay: NCI-60 single dose screen, sulforhodamine B; type: cell-based, human; details: Renal cancer CAKI-1; single dose 10^−5 M
Procedure: as §1, §2, §3, §4

MALME-3M = assay: NCI-60 single dose screen, sulforhodamine B; type: cell-based, human; details: Melanoma MALME-3M; single dose 10^−5 M
Procedure: as §1, §2, §3, §4

OVCAR-3 = assay: NCI-60 single dose screen, sulforhodamine B; type: cell-based, human; details: Ovarian cancer OVCAR-3; single dose 10^−5 M
Procedure: as §1, §2, §3, §4

NCI-H460 = assay: NCI-60 single dose screen, sulforhodamine B; type: cell-based, human; details: Non-small cell lung cancer NCI-H460; single dose 10^−5 M
Procedure: as §1, §2, §3, §4

OVCAR-4 = assay: NCI-60 single dose screen, sulforhodamine B; type: cell-based, human; details: Ovarian cancer OVCAR-4; single dose 10^−5 M
Procedure: as §1, §2, §3, §4

NCI-H23 = assay: NCI-60 single dose screen, sulforhodamine B; type: cell-based, human; details: Non-small cell lung cancer NCI-H23; single dose 10^−5 M
Procedure: as §1, §2, §3, §4

A549/ATCC = assay: NCI-60 single dose screen, sulforhodamine B; type: cell-based, human; details: Non-small cell lung cancer A549/ATCC; single dose 10^−5 M
Procedure: as §1, §2, §3, §4

SR = assay: NCI-60 single dose screen, sulforhodamine B; type: cell-based, human; details: Leukaemia SR; single dose 10^−5 M
Procedure: as §1, §2, §3, §4

NCI-H322M = assay: NCI-60 single dose screen, sulforhodamine B; type: cell-based, human; details: Non-small cell lung cancer NCI-H322M; single dose 10^−5 M
Procedure: as §1, §2, §3, §4

OVCAR-8 = assay: NCI-60 single dose screen, sulforhodamine B; type: cell-based, human; details: Ovarian cancer OVCAR-8; single dose 10^−5 M
Procedure: as §1, §2, §3, §4

BT-549 = assay: NCI-60 single dose screen, sulforhodamine B; type: cell-based, human; details: Breast cancer BT-549; single dose 10^−5 M
Procedure: as §1, §2, §3, §4

CCRF-CEM = assay: NCI-60 single dose screen, sulforhodamine B; type: cell-based, human; details: Leukaemia CCRF-CEM; single dose 10^−5 M
Procedure: as §1, §2, §3, §4

HOP-62 = assay: NCI-60 single dose screen, sulforhodamine B; type: cell-based, human; details: Non-small cell lung cancer HOP-62; single dose 10^−5 M
Procedure: as §1, §2, §3, §4

PC-3 = assay: NCI-60 single dose screen, sulforhodamine B; type: cell-based, human; details: Prostate cancer PC-3; single dose 10^−5 M
Procedure: as §1, §2, §3, §4

A498 = assay: NCI-60 single dose screen, sulforhodamine B; type: cell-based, human; details: Renal cancer A498; single dose 10^−5 M
Procedure: as §1, §2, §3, §4

KM12 = assay: NCI-60 single dose screen, sulforhodamine B; type: cell-based, human; details: Colon cancer KM12; single dose 10^−5 M
Procedure: as §1, §2, §3, §4

T-47D = assay: NCI-60 single dose screen, sulforhodamine B; type: cell-based, human; details: Breast cancer T-47D; single dose 10^−5 M
Procedure: as §1, §2, §3, §4

HCC-2998 = assay: NCI-60 single dose screen, sulforhodamine B; type: cell-based, human; details: Colon cancer HCC-2998; single dose 10^−5 M
Procedure: as §1, §2, §3, §4

HT29 = assay: NCI-60 single dose screen, sulforhodamine B; type: cell-based, human; details: Colon cancer HT29; single dose 10^−5 M
Procedure: as §1, §2, §3, §4

ACHN = assay: NCI-60 single dose screen, sulforhodamine B; type: cell-based, human; details: Renal cancer ACHN; single dose 10^−5 M
Procedure: as §1, §2, §3, §4

HS 578T = assay: NCI-60 single dose screen, sulforhodamine B; type: cell-based, human; details: Breast cancer HS 578T; single dose 10^−5 M
Procedure: as §1, §2, §3, §4

U251 = assay: NCI-60 single dose screen, sulforhodamine B; type: cell-based, human; details: CNS cancer U251; single dose 10^−5 M
Procedure: as §1, §2, §3, §4

TK-10 = assay: NCI-60 single dose screen, sulforhodamine B; type: cell-based, human; details: Renal cancer TK-10; single dose 10^−5 M
Procedure: as §1, §2, §3, §4

NCI-H522 = assay: NCI-60 single dose screen, sulforhodamine B; type: cell-based, human; details: Non-small cell lung cancer NCI-H522; single dose 10^−5 M
Procedure: as §1, §2, §3, §4

SF-268 = assay: NCI-60 single dose screen, sulforhodamine B; type: cell-based, human; details: CNS cancer SF-268; single dose 10^−5 M
Procedure: as §1, §2, §3, §4

786-0 = assay: NCI-60 single dose screen, sulforhodamine B; type: cell-based, human; details: Renal cancer 786-0; single dose 10^−5 M
Procedure: as §1, §2, §3, §4

SN12C = assay: NCI-60 single dose screen, sulforhodamine B; type: cell-based, human; details: Renal cancer SN12C; single dose 10^−5 M
Procedure: as §1, §2, §3, §4

SMILES	melting point [°C]	GI% at 10^−5 M (SK-MEL-5)	GI% at 10^−5 M (EKVX) [%]	GI% at 10^−5 M (UACC-257)	GI% at 10^−5 M (CAKI-1) [%]	GI% at 10^−5 M (MALME-3M)	GI% at 10^−5 M (OVCAR-3)	GI% at 10^−5 M (NCI-H460)	GI% at 10^−5 M (OVCAR-4)	GI% at 10^−5 M (NCI-H23)	GI% at 10^−5 M (A549/ATCC)	GI% at 10^−5 M (SR)	GI% at 10^−5 M (NCI-H322M)	GI% at 10^−5 M (OVCAR-8)	GI% at 10^−5 M (BT-549)	GI% at 10^−5 M (CCRF-CEM)	GI% at 10^−5 M (HOP-62) [%]	GI% at 10^−5 M (PC-3) [%]	GI% at 10^−5 M (A498)	GI% at 10^−5 M (KM12)	further results
O=C(CNn1c(COc2ccccc2)nc2ccccc2c1=O)Nc1ccccc1 [Compound 4a, 2-((4-oxo-2-(phenoxymethyl)quinazolin-3(4H)-yl)amino)-N-phenylacetamide]	135 to 137	– (– means GI < 10%)	14.38	– (– means GI < 10%)	12.78	– (– means GI < 10%)	– (– means GI < 10%)	– (– means GI < 10%)	– (– means GI < 10%)	16.55%	– (– means GI < 10%)	– (– means GI < 10%)	– (– means GI < 10%)	– (– means GI < 10%)	– (– means GI < 10%)	– (– means GI < 10%)	13.59	10.95	– (– means GI < 10%)	– (– means GI < 10%)	GI% at 10^−5 M (HOP-92): 15.94%; GI% at 10^−5 M (T-47D): – (– means GI < 10%); GI% at 10^−5 M (HCC-2998): – (– means GI < 10%); GI% at 10^−5 M (HT29): – (– means GI < 10%); GI% at 10^−5 M (ACHN): – (– means GI < 10%); GI% at 10^−5 M (HS 578T): 11.86%; GI% at 10^−5 M (U251): – (– means GI < 10%); GI% at 10^−5 M (TK-10): – (– means GI < 10%); GI% at 10^−5 M (NCI-H522): 13.74%; GI% at 10^−5 M (SF-268): – (– means GI < 10%); GI% at 10^−5 M (786-0): – (– means GI < 10%); GI% at 10^−5 M (SN12C): 13.08%
COc1ccc(NC(=O)CNn2c(COc3ccccc3)nc3ccccc3c2=O)cc1 [Compound 4b, N-(4-methoxyphenyl)-2-((4-oxo-2-(phenoxymethyl)quinazolin-3(4H)-yl)amino)acetamide]	146 to 148	– (– means GI < 10%)	10.17	– (– means GI < 10%)	21.63	– (– means GI < 10%)	– (– means GI < 10%)	– (– means GI < 10%)	– (– means GI < 10%)	– (– means GI < 10%)	– (– means GI < 10%)	– (– means GI < 10%)	– (– means GI < 10%)	– (– means GI < 10%)	– (– means GI < 10%)	– (– means GI < 10%)	12.71	9.76	34.65%	– (– means GI < 10%)	GI% at 10^−5 M (HOP-92): 16.34%; GI% at 10^−5 M (T-47D): – (– means GI < 10%); GI% at 10^−5 M (HCC-2998): – (– means GI < 10%); GI% at 10^−5 M (HT29): – (– means GI < 10%); GI% at 10^−5 M (ACHN): – (– means GI < 10%); GI% at 10^−5 M (HS 578T): – (– means GI < 10%); GI% at 10^−5 M (U251): – (– means GI < 10%); GI% at 10^−5 M (TK-10): – (– means GI < 10%); GI% at 10^−5 M (NCI-H522): 12.54%; GI% at 10^−5 M (SF-268): – (– means GI < 10%); GI% at 10^−5 M (786-0): – (– means GI < 10%); GI% at 10^−5 M (SN12C): 12.37%
O=c1c2ccccc2nc(COc2ccccc2)n1NS(=O)(=O)c1ccc(Cl)cc1 [Compound 5c, 4-chloro-N-(4-oxo-2-(phenoxymethyl)quinazolin-3(4H)-yl)benzenesulfonamide]	208 to 210	– (– means GI < 10%)	25.19	– (– means GI < 10%)	26.93	17.90%	– (– means GI < 10%)	– (– means GI < 10%)	– (– means GI < 10%)	17.19%	14.05%	42.42%	17.13%	– (– means GI < 10%)	– (– means GI < 10%)	– (– means GI < 10%)	25.00	17.26	36.68%	44.77%	GI% at 10^−5 M (T-47D): 25.18%; GI% at 10^−5 M (HCC-2998): 22.36%; GI% at 10^−5 M (HT29): 20.01%; GI% at 10^−5 M (ACHN): – (– means GI < 10%); GI% at 10^−5 M (HS 578T): 24.96%; GI% at 10^−5 M (U251): 12.24%; GI% at 10^−5 M (TK-10): – (– means GI < 10%); GI% at 10^−5 M (NCI-H522): 30.63%; GI% at 10^−5 M (SF-268): 11.40%; GI% at 10^−5 M (786-0): – (– means GI < 10%); GI% at 10^−5 M (SN12C): 23.41%
